# Results taken from patent publication US6235891A, “Glucocorticoid receptor agonist and decreased PP5” (South Alabama Medical Science Foundation, priority 1999, dated 2001).
# Tested on: PP5 mRNA
# Test: Northern blot analysis of PP5 mRNA expression in A549 cells
# Format: cell-based, human
# Set-up: key to Activity class in initial screen (PP5 mRNA reduction): oligonucleotides giving a reduction of PP5 mRNA of approximately 50% or greater were considered active
# Settings: for Activity class in initial screen (PP5 mRNA reduction) / Percent Inhibition of PP5 mRNA: 300 nM oligonucleotide; for Percent Inhibition of PP5 mRNA: four hours, lipofectin, approximate, compared to control
# Text: The oligonucleotides shown in Table 1 were designed using the Genbank sequences HSSERTHRP (Genbank accession number X92121), HSRNAPPP5 (Genbank accession number X89416) and PPP5C (Genbank accession number U25174), synthesized and tested for inhibition of PP5 mRNA expression in A549 cells using a Northern blot assay. All oligonucleotides shown in Table 1 are chimeric oligonucleotides with central 2'-deoxy "gaps," which have phosphorothioate backbones, flanked on both sides by 2'-methoxyethoxy (2'-MOE) "wings" (shown in bold), which have phosphodiester backbones. All cytosines in the 2'-MOE wings are 5-methylcytosines.
# In the initial screen, A549 cells were treated with oligonucleotides at a concentration of 300 nM oligonucleotide for four hours in the presence of […] lipofectin. Results were normalized and expressed as a percent of control. The effect of each oligonucleotide on levels of PP5 mRNA, expressed as approximate percent inhibition compared to control, is shown in Table 1. In this initial screen, oligonucleotides giving a reduction of PP5 mRNA of approximately 50% or greater were considered active. […] These sequences (SEQ ID NO: 1, 2, 3, 4, 6, 7 and 12, respectively, SEQ ID Nos shown in bold in Table 1) are therefore preferred.
# These oligonucleotides were tested for their ability to reduce PP5 mRNA levels in A549 cells, using oligonucleotide doses of 25 to 500 nM.
# The human lung tumor cell line A549 was obtained from the American Type Culture Collection (Rockville Md.) and were grown in DMEM (Gibco BRL, Gaithersburg Md.), supplemented with 10% fetal calf. Cells were seeded on 60 mm plates. When they reached 70% confluency, they were washed with DMEM and 1 ml of DMEM containing 15 μg/ml DOTMA/DOPE (Lipofectin®, GIBCO-BRL) and oligonucleotide at desired concentration was added. Duplicate dishes were used for each treatment condition. After 4 hours of treatment at 37°, cells were washed and cultured in fresh DMEM containing 10% fetal bovine serum for an additional 17 hours. Cells were then harvested and total RNA was extracted with TRIzol Reagent (GIBCO-BRL) according to manufacturer's protocol. Total RNA (20 μg) was fractionated on a 1% agarose gel containing formaldehyde, and transferred to a DURLON-UV (Stratagene) nylon membrane. Following UV crosslinking, the filters were hybridized with the appropriate protein phosphatase probe. The ^32 P-labeled human PP cDNA probes are generated with DECAPrime® DNA Labeling Kit (Ambion) according to the manufacturer's protocol. Hybridization was performed in a hybridization solution containing 50% formamide at 42° for 16 hours. This was followed by two low stringency washes (2×SSC) at room temperature and two high stringency washes (0.1×SSC/0.5% SDS) at 55° C. Hybridization signals were visualized by autoradiography, and filters were then stripped and reprobed with a ^32 P-labeled glyceraldehyde-3-phosphate dehydrogenase (GAPDH) probe to confirm equal loading. The densities of hybridization signals were measured with the NIH Image program (ImagePC).
# The cells were harvested, and total RNA was extracted with TRIzol® Reagent according to the methods of the manufacturer. Total RNA (20 μg) was fractionated on 1% agarose gels containing formaldehyde and transferred to DURLON-UV nylon membranes (Stratagene). Following UV cross-linking, the filters were hybridized with a [α^32 P]probe for human PP5. The human PP5 cDNA probe was generated from the full length coding region of PP5 and [α^32 P]-dATP was labeled with DECAprime® DNA Labeling Kit according to the manufacturer's protocol. Hybridization was performed in the presence of 50% formamide, 0.1 M Pipes, 0.8 M NaCl, 5×Denhardt's solution, 100 μg/ml denatured herring sperm DNA, 1×10^6 cpm/ml [α-^32 P]-labeled probe and 10% dextran sulfate at 42° C. for 16 hours. Following hybridization, the membrane was subjected to two low stringency washes (2×SSC) at room temperature and then two high stringency washes (0.1×SSC/0.5% SDS) at 55° C. […]
Substance,Activity class in initial screen (PP5 mRNA reduction),Percent Inhibition of PP5 mRNA,"IC50 (doses of 25 to 500 nM, read-out: IC50 for reduction of PP5 mRNA levels)"
"ISIS 14498: chimeric 2'-MOE/deoxy gap antisense oligonucleotide to human PP5, coding; GTACTTGGCCTTCACCTCAC, SEQ ID NO: 6 (sugars by position and backbone not given here; chimeric 2'-MOE wings with deoxy gap)",active,,
"ISIS 14500: chimeric 2'-MOE/deoxy gap antisense oligonucleotide to human PP5, coding; AGAGCCCTGGAGGTGGATGT, SEQ ID NO: 8 (sugars by position and backbone not given here; chimeric 2'-MOE wings with deoxy gap)",,41%,
"ISIS 14499: chimeric 2'-MOE/deoxy gap antisense oligonucleotide to human PP5, coding; CCAGGTTGTTCTCTTCCAAG, SEQ ID NO: 7 (sugars by position and backbone not given here; chimeric 2'-MOE wings with deoxy gap)",active,62%,
"ISIS 14503: chimeric 2'-MOE/deoxy gap antisense oligonucleotide to human PP5, 3' UTR; GCCCCAGCTGCTCCACCTCC, SEQ ID NO: 11 (sugars by position and backbone not given here; chimeric 2'-MOE wings with deoxy gap)",,27%,
"ISIS 15523: chimeric PP5 antisense oligonucleotide, wider deoxy gap, uniformly phosphorothioate; GGGCCCTATTGCTTGAGTGG, SEQ ID NO: 12 (all phosphorothioate, sugars by position and methylation of C not given here; chimeric with deoxy gap)",,,~100 nM
"ISIS 14501: chimeric 2'-MOE/deoxy gap antisense oligonucleotide to human PP5, stop codon; CGCCCCGCCCGTCACCTCAC, SEQ ID NO: 9 (sugars by position and backbone not given here; chimeric 2'-MOE wings with deoxy gap)",,42%,
"ISIS 14493: chimeric 2'-MOE/deoxy gap antisense oligonucleotide to human PP5, AUG; TCGCCCTCCGCCATCGCCAT, SEQ ID NO: 1 (sugars by position and backbone not given here; chimeric 2'-MOE wings with deoxy gap)",active,,
"ISIS 14495: chimeric 2'-MOE/deoxy gap antisense oligonucleotide to human PP5, coding; GTAGGCCAGGCTGCGGTTGC, SEQ ID NO: 3 (sugars by position and backbone not given here; chimeric 2'-MOE wings with deoxy gap)",active,66%,
"ISIS 14494: chimeric 2'-MOE/deoxy gap antisense oligonucleotide to human PP5, coding; TTCAGAGCTCCATCAGCCGG, SEQ ID NO: 2 (sugars by position and backbone not given here; chimeric 2'-MOE wings with deoxy gap)",active,52%,
"ISIS 14496: chimeric 2'-MOE/deoxy gap antisense oligonucleotide to human PP5, coding; CCGCTGTACTCATCCTCAAT, SEQ ID NO: 4 (sugars by position and backbone not given here; chimeric 2'-MOE wings with deoxy gap)",active,54%,
"ISIS 14504: chimeric 2'-MOE/deoxy gap antisense oligonucleotide to human PP5, 3' UTR; GGGCCCTATTGCTTGAGTGG, SEQ ID NO: 12 (sugars by position and backbone not given here; chimeric 2'-MOE wings with deoxy gap)",active,,
"ISIS 14497: chimeric 2'-MOE/deoxy gap antisense oligonucleotide to human PP5, coding; TCCCCACATACTGTAATCTT, SEQ ID NO: 5 (sugars by position and backbone not given here; chimeric 2'-MOE wings with deoxy gap)",,11%,
"ISIS 14505: chimeric 2'-MOE/deoxy gap antisense oligonucleotide to human PP5, 3' UTR; CCCAGCCTAGCCCCACCATG, SEQ ID NO: 13 (sugars by position and backbone not given here; chimeric 2'-MOE wings with deoxy gap)",,23%,
"ISIS 14502: chimeric 2'-MOE/deoxy gap antisense oligonucleotide to human PP5, 3' UTR; CCTACCCCCTCTGCAAACCT, SEQ ID NO: 10 (sugars by position and backbone not given here; chimeric 2'-MOE wings with deoxy gap)",,40%,
